How the values were obtained:
Format in all cases: cell-based, Saccharomyces cerevisiae
[1] = tested on: Abp1 PPIs; test: DHFR-PCA of Abp1 SH3-swapped baits (Fig. 2B-D, S2C, S2F); conditions: Fig2B; bait ABP1, label = prey; Replicates 4
From the text: Having determined that multiple PPIs require SH3s, we asked whether the latter establish PPI specificity independently from their host proteins by swapping domains (Fig. 2A). Using the second round of genome editing, we individually replaced Abp1 SH3 with the 27 yeast SH3s and 3 human Abp1 orthologs’ SH3s (CTTN, HCLS1, and DBNL, Fig. 2B). The reintroduction of its own SH3 (Abp1SH3 in Abp1) reconstitutes almost perfectly Abp1’s interaction profile (Kendall’s τ = 0.93, Fig. 2B). […] No homologous SH3 domain fully re-establishes the normal Abp1 PPI profile (Fig. 2B and Supplementary Fig. 2C). However, we observe a significant correlation (cophenetic correlation = 0.20, p value = 0.005, Fig. 2C) between the similarity of PPI profiles (Fig. 2B) and the sequence similarity of the SH3s. […] Nonetheless, a subset of SH3-dependent PPIs is only observed with the endogenous domain. For instance, Hua2 and App1, both well-characterized partners of Abp1[14],[18],[19], are only detected when Abp1 contains its own SH3 (WT or swapped via editing). A given SH3 may therefore not be fully replaceable with other paralogous or orthologous domains. This pattern is confirmed by cellular growth phenotypic analyses (Supplementary Fig. 2D, E). PPIs, SH3 sequence similarity, and growth profiles under stress conditions are correlated (Supplementary Fig. 2D, E). This relationship is particularly clear when analyzing growth on media supplemented with hygromycin.
The stuffing of YSC84 SH3 rendered the strain sterile and was therefore not used for this study as the assays require crosses. For genes containing two SH3s (BZZ1 and BEM1), a combination of this first stuffer with a second one ([…]) coding for a highly similar linker ([…]) was used, which allowed targeting each SH3 position independently. The two N-terminal domains of SLA1, which are separated by six nucleotides, were stuffed by a single stuffer. Cells containing pCAS were selected via the G418 resistance cassette from the plasmid on YPD plates (YPD + NAT 100 μg/ml (DHFR F[1,2] selection) + G418 200 µg/mL (Bioshop Canada)). Colonies were randomly selected and grown in YPD media without G418 to allow plasmid loss. The correct insertion of the stuffer was validated by PCR and Sanger sequencing. The SH3-swapped, -shuffled, and -mutated strains were constructed following a second CRISPR–Cas9 editing step with the same procedures. The stuffer sequences were targeted by specific gRNAs (one gRNA per stuffer) and replaced by PCR amplified specific SH3 (with 40 bp homology arms) or libraries of mutated SH3 domains for Deep Mutational Scanning (DMS) with 78 bp flanking homology regions. Validation of the SH3 domain insertions was done as we previously described except for DMS libraries (see below).
The overall DHFR-PCA pipeline is based on Tarassov et al.[43] and the procedures have also been published as a visualized protocol. The screens were performed with robotically manipulated pin tools (BM5-SC1, S&P Robotics Inc.). First, the preys were cherry-picked from 96-well plates to omnitrays in a 384 format on YPD + HPH solid media. Plates were then combined into the 1536 format on YPD + HPH. The array was constituted of 575 preys previously shown to interact physically with at least one SH3-containing protein as reported in BioGRID V3.4.16 along with 40 negative controls. The prey array comprised a border of control strains of two rows and two columns corresponding to the PPI between LSM8-DHFR F[1,2] and CDC39-DHFR F[3]. This double border was used to remove border effects. Preys are present in duplicate at a randomized position in the 1536 array (except for YAL041W which is present four times per array). Baits were crossed with two prey plates, resulting in four independent bait–prey tests for each PPI. Baits were grown in liquid YPD + NAT and then transferred on solid YPD + NAT omnitrays. They were then replicated on YPD + NAT omnitrays in 1536 array format. […]

[2] = tested on: ABP1; test: DHFR-PCA on solid medium, bait ABP1 (Fig. 1B); conditions: bait ABP1, label = prey; for medrep (log2 median colony size normalized to plate background, PCA score): 2-4 replicates; for Ratio (SH3-deleted/WT medrep): only significant differences showed, PPIs completely lost have a ratio of 0.1 and the gained PPIs 2.5
From the text: Supplement 41467_2021_21873_MOESM8_ESM.xlsx, sheet "Fig1B" | column: medsize; medrep; Ratio; Score

[3] = tested on: PPIs identified as affected by the SH3 domain deletions; test: Liquid DHFR-PCA low-throughput validation of PPIs affected by SH3 deletion (Fig. S1D-E); conditions: label = prey, liquid DHFR-PCA, prey _1 = lost, _2 = gained in screen
Experimental: Liquid DHFR-PCA low-throughput experiments were performed to validate the PPIs identified as affected by the SH3 domain deletions in the high-throughput solid DHFR-PCA screen (256 PPIs weaker or lost and 116 PPIs stronger or gained following domain deletions). Mating and the diploid selection were performed as described for the large-scale experiment, with the exception that the plates were in 384 formats. Following the second diploid selection, diploid cells were inoculated in a 96 v-shaped well plate using a robotically manipulated 96 pin tool in a synthetic complete medium with MSG at pH 6.0 with NAT and HPH. After 48 h of growth, optical density (OD) was read using a TECAN Infinite F200 Pro, and dilutions to 1 OD in sterile nanopure water were prepared. Cells were then diluted to 0.1 OD by combining 25 µl of cell suspension at OD = 1 and 225 µl of PCA selection media without agar in a 96-wells plate. Plates were incubated at 30 °C in a TECAN Infinite M Nano and OD was monitored each 15 min for 72 h.

YBL017C
medrep (log2 median colony size normalized to plate background) [1]: 1.647
medsize (median colony size) [1]: 447.5
medrep (log2 median colony size normalized to plate background, PCA score) [2]: 2.711
Ratio (SH3-deleted/WT medrep) [2]: 1.6455

YBR234C_1
Ratio (Deletedscore / WTscore) ([3]; bait BUD14): 0.744

YIL062C_1
Ratio (Deletedscore / WTscore) ([3]; bait BZZ1-1): 0.7418

YPR154W (EYVEALYQFDPQQDGDLGLKPGDKVQLLEKLSPEWYKGSCNGRTGIFPANYVKPAF)
medrep (log2 median colony size normalized to plate background, PCA score) [2]: 1.556

YLL040C_1
Ratio (Deletedscore / WTscore) ([3]; bait LSB3): 0.505

YER166W_1
Ratio (Deletedscore / WTscore) ([3]; bait RVS167): 0.4913

YGL206C_1
Ratio (Deletedscore / WTscore) ([3]; bait BBC1): 0.7295
Ratio (Deletedscore / WTscore) ([3]; bait BOI1): 1.003
Ratio (Deletedscore / WTscore) ([3]; bait HOF1): 0.9141

YDR170C_2
Ratio (Deletedscore / WTscore) ([3]; bait ABP1): 1.267
Ratio (Deletedscore / WTscore) ([3]; bait LSB3): 1.852

YDL229W_2
Ratio (Deletedscore / WTscore) ([3]; bait BOI1): 1.5

YGL206C_2
Ratio (Deletedscore / WTscore) ([3]; bait BEM1-2): 1.078
Ratio (Deletedscore / WTscore) ([3]; bait BZZ1-1): 0.8702
Ratio (Deletedscore / WTscore) ([3]; bait BZZ1-2): 1.646

YLR370C_1
Ratio (Deletedscore / WTscore) ([3]; bait BZZ1-1): 0.6354

YDR170C
medrep (log2 median colony size normalized to plate background, PCA score) [2]: 2.657
Ratio (SH3-deleted/WT medrep) [2]: 1.547

YDR170C_1
Ratio (Deletedscore / WTscore) ([3]; bait RVS167): 0.751

YAL005C_2
Ratio (Deletedscore / WTscore) ([3]; bait BOI1): 0.8346
Ratio (Deletedscore / WTscore) ([3]; bait CYK3): 1.208
Ratio (Deletedscore / WTscore) ([3]; bait HOF1): 1.323
Ratio (Deletedscore / WTscore) ([3]; bait): 1.478

YBL017C_2
Ratio (Deletedscore / WTscore) ([3]; bait ABP1): 1.35
Ratio (Deletedscore / WTscore) ([3]; bait LSB3): 1.844

YIL062C_2
Ratio (Deletedscore / WTscore) ([3]; bait HSE1): 1.213

YDL229W_1
Ratio (Deletedscore / WTscore) ([3]; bait CDC25): 0.6311

YDR265W_2
Ratio (Deletedscore / WTscore) ([3]; bait BEM1-1): 1.494
Ratio (Deletedscore / WTscore) ([3]; bait): 1.155

YBR109C_1
Ratio (Deletedscore / WTscore) ([3]; bait MYO5): 0.9988

YER155C_1
Ratio (Deletedscore / WTscore) ([3]; bait BOI1): 0.8689
Ratio (Deletedscore / WTscore) ([3]; bait BOI2): 0.775
Ratio (Deletedscore / WTscore) ([3]; bait BUD14): 0.7098

YOR181W_1
Ratio (Deletedscore / WTscore) ([3]; bait BBC1): 0.634
Ratio (Deletedscore / WTscore) ([3]; bait LSB1): 0.5295
Ratio (Deletedscore / WTscore) ([3]; bait LSB3): 0.6909
Ratio (Deletedscore / WTscore) ([3]; bait MYO3): 0.5123
Ratio (Deletedscore / WTscore) ([3]; bait MYO5): 0.7615
Ratio (Deletedscore / WTscore) ([3]; bait PIN3): 0.5418

YKL013C_1
Ratio (Deletedscore / WTscore) ([3]; bait BZZ1-1): 0.9908
Ratio (Deletedscore / WTscore) ([3]; bait BZZ1-2): 1.121
Ratio (Deletedscore / WTscore) ([3]; bait MYO5): 0.8543

YPR184W_2
Ratio (Deletedscore / WTscore) ([3]; bait LSB3): 1.832
